Format in all cases: biochemical
Assay [1] concerns the target T1, MMP2 (Homo sapiens, UniProt P08253).
T1 sequence (P08253 110-660): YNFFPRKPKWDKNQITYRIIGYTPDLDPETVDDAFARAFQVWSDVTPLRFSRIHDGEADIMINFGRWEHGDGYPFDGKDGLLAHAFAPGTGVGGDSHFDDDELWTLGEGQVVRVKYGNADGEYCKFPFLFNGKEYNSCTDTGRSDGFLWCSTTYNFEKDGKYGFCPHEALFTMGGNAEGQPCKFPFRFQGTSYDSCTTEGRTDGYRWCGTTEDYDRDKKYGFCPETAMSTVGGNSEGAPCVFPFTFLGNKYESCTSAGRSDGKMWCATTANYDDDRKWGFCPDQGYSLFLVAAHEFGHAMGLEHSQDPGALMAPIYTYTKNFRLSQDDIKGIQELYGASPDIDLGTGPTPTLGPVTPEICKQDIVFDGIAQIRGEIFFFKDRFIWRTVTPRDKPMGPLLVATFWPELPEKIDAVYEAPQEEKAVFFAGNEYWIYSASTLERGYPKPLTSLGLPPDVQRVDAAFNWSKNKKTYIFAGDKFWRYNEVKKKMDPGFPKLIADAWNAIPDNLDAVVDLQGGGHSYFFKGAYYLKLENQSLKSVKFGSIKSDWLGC
The assay is described as follows: MMP-2 colorimetric inhibition assay (Enzo kit BML-AK408). Conditions: thiopeptide substrate, absorbance 415 nm; read-out: MMP 2 IC50 class. Summed up: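 Cleavage of the thiopeptide Ac-PLG-[2-mercapto-4-methylpentanoyl]-LG-OC2H5 releases a sulfhydryl that reacts with DTNB, read at 415 nm per the kit protocol. IC50 values (nM) come from inhibition curves of normalized data.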

Assay [2] deals with ADAM17 (TACE) (Homo sapiens, UniProt P78536). The assay is described as follows: TACE fluorometric inhibition assay (Enzo kit BML-AK310). To be noted: quenched fluorogenic peptide, ex/em 320/420 nm; read-out: TACE IC50 class. Summed up:
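Kit-based TACE assay run per manufacturer's protocol, using quenched fluorogenic peptide Mca-PLAQAV-Dpa-RSSSR-NH2 whose cleavage raises Mca fluorescence. Signal read at ex/em 320/420 nm; IC50 (nM) derived from inhibition curves of normalized values.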

In assay [3] the target is T2, ADAM10 (Homo sapiens, UniProt O14672).
T2 construct: purchased AnaSpec, Inc. AS-72226
T2 sequence (O14672 214-748): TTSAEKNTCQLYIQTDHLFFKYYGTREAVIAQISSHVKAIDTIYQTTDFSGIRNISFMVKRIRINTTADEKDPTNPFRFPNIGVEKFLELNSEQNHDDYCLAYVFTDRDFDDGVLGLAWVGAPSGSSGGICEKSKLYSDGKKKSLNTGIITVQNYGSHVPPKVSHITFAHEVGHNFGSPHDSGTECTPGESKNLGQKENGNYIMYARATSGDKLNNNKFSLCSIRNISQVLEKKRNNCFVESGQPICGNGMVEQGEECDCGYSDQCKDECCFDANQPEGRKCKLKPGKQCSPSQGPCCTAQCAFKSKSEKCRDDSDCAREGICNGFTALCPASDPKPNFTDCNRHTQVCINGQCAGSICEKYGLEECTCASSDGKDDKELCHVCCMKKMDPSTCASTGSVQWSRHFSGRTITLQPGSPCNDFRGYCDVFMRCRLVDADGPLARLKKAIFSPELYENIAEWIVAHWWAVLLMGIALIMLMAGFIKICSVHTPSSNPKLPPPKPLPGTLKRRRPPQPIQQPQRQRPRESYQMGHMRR
The experiment in a line: SensoLyte 520 ADAM10 fluorometric activity assay (AnaSpec AS-72226). The method, boiled down:
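ADAM10 activity was read by cleavage of a FRET peptide substrate (5-FAM/QXL 520), run per the kit protocol, with fluorescence at 495/520 nm. IC50 values (nM) came from inhibition curves of normalized data.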

Assay [4] has as its target MMP9 (Homo sapiens, UniProt P14780). The experiment in a line: MMP-9 colorimetric inhibition assay (Enzo kit BML-AK410). Conditions: thiopeptide substrate, absorbance 415 nm; read-out: MMP 9 IC50 class. Summed up:
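Colorimetric thioester-substrate assay: hydrolysis of Ac-PLG-[2-mercapto-4-methylpentanoyl]-LG-OC2H5 frees a thiol that reacts with DTNB, read at 415 nm. Run per kit protocol. IC50 (nM) taken from inhibition curves of normalized values.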

Assay [5] has as its target T3, MMP1 (Homo sapiens, UniProt P03956).
T3 sequence (P03956 100-269 limits assumed): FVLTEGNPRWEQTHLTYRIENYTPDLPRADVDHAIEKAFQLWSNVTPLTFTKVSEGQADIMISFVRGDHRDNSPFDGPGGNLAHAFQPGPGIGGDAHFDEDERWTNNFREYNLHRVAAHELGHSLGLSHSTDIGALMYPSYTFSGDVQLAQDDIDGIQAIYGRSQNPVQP
The experiment in a line: MMP-1 colorimetric inhibition assay (Enzo kit BML-AK404). To be noted: thiopeptide substrate, absorbance 415 nm; read-out: MMP 1 IC50 class. The method, boiled down: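 Colorimetric kit run per manufacturer protocol. MMP-1 cleaves a thiopeptide substrate (Ac-PLG-[2-mercapto-4-methylpentanoyl]-LG-OC2H5); released thiol reacts with DTNB, monitored at 415 nm. IC50 (nM) from inhibition curves of normalized values.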

The target in assay [6] is T4, MMP13 (Homo sapiens, UniProt P45452).
T4 construct: purchased Enzo Life Sciences, Inc. BML-AK412
The assay is described as follows: MMP-13 colorimetric inhibition assay (Enzo kit BML-AK412). To be noted: thiopeptide substrate, absorbance 415 nm; read-out: MMP 13 IC50 class. The method, boiled down: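 Thiopeptide chromogenic substrate (Ac-PLG-[2-mercapto-4-methylpentanoyl]-LG-OC2H5); MMP-13 hydrolysis of the thioester yields a thiol that reacts with DTNB, read at 415 nm. IC50 values (nM) derived from inhibition curves of normalized data.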

Where [7] appears, read: FRET peptide substrate, ex/em 495/520 nm, read-out: ADAM 10 IC50 class.

For eight compounds, IC50 results are on record in patent publication US20250215010A1, “DIAZABICYCLOOCTANE DERIVATIVES USEFUL AS MATRIX METALLOPROTEINASE INHIBITORS” (VASA THERAPEUTICS SPOLKA Z OGRANICZONA ODPOWIEDZIALNOSCIA, priority 2022, published 2025).

Like-named read-outs stand apart in the source and are kept apart here.

Sequence of MMP9 (P14780 94-707): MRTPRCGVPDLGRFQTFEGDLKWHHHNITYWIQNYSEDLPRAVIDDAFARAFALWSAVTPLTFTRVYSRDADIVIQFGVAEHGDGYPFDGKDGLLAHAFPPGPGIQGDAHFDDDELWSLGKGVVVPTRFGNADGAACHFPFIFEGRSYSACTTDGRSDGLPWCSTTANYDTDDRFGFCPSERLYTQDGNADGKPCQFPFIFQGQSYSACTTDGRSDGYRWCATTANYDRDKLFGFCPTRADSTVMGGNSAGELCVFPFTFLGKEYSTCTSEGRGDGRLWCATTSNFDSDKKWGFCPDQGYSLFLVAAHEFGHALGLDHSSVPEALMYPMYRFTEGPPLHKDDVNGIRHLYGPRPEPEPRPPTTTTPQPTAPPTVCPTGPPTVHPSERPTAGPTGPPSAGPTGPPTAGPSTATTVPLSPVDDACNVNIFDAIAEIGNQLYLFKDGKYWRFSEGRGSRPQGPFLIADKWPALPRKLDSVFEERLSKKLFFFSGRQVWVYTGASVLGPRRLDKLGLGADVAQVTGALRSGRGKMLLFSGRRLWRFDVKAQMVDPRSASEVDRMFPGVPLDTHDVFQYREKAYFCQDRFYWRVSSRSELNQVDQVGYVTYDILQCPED
Sequence of ADAM17 (TACE) (P78536 215-477 limits assumed): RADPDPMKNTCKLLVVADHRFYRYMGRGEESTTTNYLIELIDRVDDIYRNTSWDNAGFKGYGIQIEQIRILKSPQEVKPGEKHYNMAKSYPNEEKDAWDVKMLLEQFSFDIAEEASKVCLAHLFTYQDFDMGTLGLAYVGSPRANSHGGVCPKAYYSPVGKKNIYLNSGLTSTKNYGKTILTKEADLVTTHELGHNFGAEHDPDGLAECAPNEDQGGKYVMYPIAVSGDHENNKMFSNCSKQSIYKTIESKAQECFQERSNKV

As a reminder, the IC50 is the concentration needed to halve the response being measured. For `COCCOC(=O)N1[C@@H]2CC[C@H]1[C@H](C(=O)NO)N(S(=O)(=O)N1CCC(Oc3ccc(Cl)cc3)CC1)C2` [Example 44, (1S,2R,5R)-2-methoxyethyl 3-((4-(4-chlorophenoxy)piperidin-1-yl)sulfonyl)-2-(hydroxycarbamoyl)-3,8-diazabicyclo[3.2.1]octane-8-carboxylate], the IC50 was less than 50 nM in assay [1]; less than 50 nM in assay [2]; 50 to 1000 nM in assay [3]; less than 50 nM in assay [4]; 50 to 1000 nM in assay [5]; less than 50 nM in assay [6].
As for `CCc1ccc(Oc2ccc(S(=O)(=O)N3C[C@H]4CC[C@@H]([C@@H]3C(=O)NO)N4C(=O)OCCOC)cn2)cc1` [Example 33, 2-methoxyethyl (1S,2R,5R)-3-((6-(4-ethylphenoxy)pyridin-3-yl)sulfonyl)-2-(hydroxycarbamoyl)-3,8-diazabicyclo-[3.2.1]octane-8-carboxylate], the IC50 in assay [1] is less than 50 nM; in assay [2] it was 1000 to 10000 nM; in assay [3] (setting [7]), greater than 10000 nM; in assay [4], less than 50 nM; in assay [5] it was 1000 to 10000 nM; in assay [6], less than 50 nM.
As for `CCC(=O)N1[C@@H]2CC[C@H]1[C@H](C(=O)NO)N(S(=O)(=O)c1ccc(Oc3ccc(OC(F)(F)F)cc3)nc1)C2` [Example 55, (1S,2R,5R)-N-hydroxy-8-propionyl-3-((6-(4-(trifluoromethoxy)-phenoxy)pyridin-3-yl)sulfonyl)-3,8-diazabicyclo[3.2.1]-octane-2-carboxamide], the IC50 in assay [1] was less than 50 nM; in assay [2] it was 1000 to 10000 nM; in assay [3] (setting [7]), greater than 10000 nM; in assay [4] it was less than 50 nM; in assay [5], 1000 to 10000 nM; in assay [6], less than 50 nM.
Turning to `COCCOC(=O)N1[C@@H]2CC[C@H]1[C@H](C(=O)NO)N(S(=O)(=O)c1ccc(Oc3ccc(F)cc3)nc1)C2` [Example 1, (1S,2R,5R)-2-methoxyethyl 3-((6-(4-fluorophenoxy)pyridin-3-yl)sulfonyl)-2-(hydroxycarbamoyl)-3,8-diazabicyclo[3.2.1]octane-8-carboxylate], the IC50 in assay [1] is less than 50 nM; in assay [2], 1000 to 10000 nM; in assay [3] (setting [7]) it was 1000 to 10000 nM; in assay [4] it was less than 50 nM; in assay [5] it was 50 to 1000 nM; in assay [6] it was less than 50 nM.
As to `CC(C)OC(=O)N1[C@@H]2CC[C@H]1[C@H](C(=O)NO)N(S(=O)(=O)c1ccc(Oc3ccc(F)cc3)nc1)C2` [Example 67, isopropyl (1S,2R,5R)-3-((6-(4-fluorophenoxy)-pyridin-3-yl)-sulfonyl)-2-(hydroxycarbamoyl)-3,8-diazabicyclo-[3.2.1]octane-8-carboxylate], the IC50 was less than 50 nM in assay [1]; 1000 to 10000 nM in assay [2]; greater than 10000 nM in assay [3] (setting [7]); less than 50 nM in assay [4]; 50 to 1000 nM in assay [5]; less than 50 nM in assay [6].
For `COc1ccc(Oc2ccc(S(=O)(=O)N3C[C@H]4CC[C@@H]([C@@H]3C(=O)NO)N4C(C)=O)cn2)cc1F` [Example 63, (1S,2R,5R)-8-acetyl-3-((6-(3-fluoro-4-methoxyphenoxy)-pyridin-3-yl)-sulfonyl)-N-hydroxy-3,8-diazabicyclo[3.2.1]-octane-2-carboxamide], the IC50 is less than 50 nM in assay [1]; 1000 to 10000 nM in assay [2]; 1000 to 10000 nM in assay [3] (setting [7]); less than 50 nM in assay [4]; 1000 to 10000 nM in assay [5]; less than 50 nM in assay [6].
For the compound `COCCOC(=O)N1[C@@H]2CC[C@H]1[C@H](C(=O)NO)N(S(=O)(=O)c1ccc(Oc3ccc(OC)cc3)nc1)C2` [Example 18, 2-methoxyethyl (1S,2R,5R)-2-(hydroxycarbamoyl)-3-((6-(4-methoxy-phenoxy)pyridin-3-yl)sulfonyl)-3,8-diazabicyclo-[3.2.1]octane-8-carboxylate], the IC50 was less than 50 nM in assay [1]; 1000 to 10000 nM in assay [2]; 1000 to 10000 nM in assay [3] (setting [7]); less than 50 nM in assay [4]; 1000 to 10000 nM in assay [5]; less than 50 nM in assay [6].
In the case of `CC(=O)N1[C@@H]2CC[C@H]1[C@H](C(=O)NO)N(S(=O)(=O)c1ccc(Oc3ccc(F)cc3)nc1)C2` [Example 53, (1S,2R,5R)-8-acetyl-3-((6-(4-fluorophenoxy)pyridin-3-yl)sulfonyl)-N-hydroxy-3,8-diazabicyclo[3.2.1]octane-2-carboxamide], the IC50 in assay [1] is less than 50 nM; in assay [2] it was 1000 to 10000 nM; in assay [3] (setting [7]) it was greater than 10000 nM; in assay [4], less than 50 nM; in assay [5], 50 to 1000 nM; in assay [6], less than 50 nM.
